From ChEMBL document CHEMBL5136993, “Identification of potent α-amylase inhibitors via dynamic combinatorial chemistry” (Bioorg Med Chem, 2022) come the findings set out here.

The nature of series [1]: Cytotoxicity against HEK293 cells assessed as reduction in cell growth incubated for 12 hrs by CCK-8 assay. It counts as toxicity, cell-based. Conditions: human. On the technique in general: Tetrazolium dyes change colour on reduction, which living cells bring about.
Series [2] addresses T1, Alpha amylase (Homo sapiens, UniProt P0DUB6).
T1 sequence (P0DUB6 whole entry): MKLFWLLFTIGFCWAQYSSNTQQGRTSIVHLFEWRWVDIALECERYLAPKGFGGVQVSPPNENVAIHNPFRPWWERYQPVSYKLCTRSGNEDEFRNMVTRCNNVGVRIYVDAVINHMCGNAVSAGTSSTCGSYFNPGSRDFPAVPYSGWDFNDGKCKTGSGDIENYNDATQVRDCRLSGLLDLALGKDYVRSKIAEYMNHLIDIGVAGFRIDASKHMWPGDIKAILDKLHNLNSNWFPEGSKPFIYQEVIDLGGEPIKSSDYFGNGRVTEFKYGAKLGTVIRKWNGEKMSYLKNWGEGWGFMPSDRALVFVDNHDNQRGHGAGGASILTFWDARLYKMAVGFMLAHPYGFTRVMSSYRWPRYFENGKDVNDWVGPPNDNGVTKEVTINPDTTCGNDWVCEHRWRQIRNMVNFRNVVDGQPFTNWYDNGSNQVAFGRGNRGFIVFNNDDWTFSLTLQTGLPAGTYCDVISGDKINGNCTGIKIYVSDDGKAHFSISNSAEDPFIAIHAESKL
Briefly: Inhibition of human saliva alpha-amylase using starch as substrate preincubated for 15 mins followed by substrate addition and measured after 15 mins.

For series [3], the system named is O=C(N/N=C/c1coc2cc(Br)ccc2c1=O)c1nc(-c2cccc(Br)c2)cs1. Description: Competitive inhibition of human saliva alpha-amylase assessed as Km using starch as substrate preincubated for 15 mins followed by substrate addition and measured after 15 mins by Lineweaver-Burk plot analysis. As to conditions: time 30.0 min.
The target of series [4] is T1, Alpha amylase. Briefly: Competitive inhibition of human saliva alpha-amylase assessed as inhibition constant using starch as substrate preincubated for 15 mins followed by substrate addition and measured after 15 mins by dixon plot analysis. It counts as tissue-based.

For `O=C(N/N=C/c1coc2cc(Br)ccc2c1=O)c1nc(-c2ccc(Cl)cc2)cs1`, the cytotoxic concentration (CC50) (as a rule, the concentration giving 50% cytotoxicity) at 12 h in series [1] was 68 µM. For the same molecule, at Alpha amylase [2], the half-maximal inhibitory concentration (IC50) (commonly the concentration at which inhibition is half-maximal) was 6.1 µM. Regarding “Alpha amylase (Homo sapiens) (from UniProt P0DUB6)”, the Michaelis-Menten constant (Km) (as a rule, the substrate concentration at which the rate is half of its maximum) in series [3] worked out at 2140 µM. On to `Cc1ccc2occ(/C=N/NC(=O)c3nc(-c4ccc(F)cc4)cs3)c(=O)c2c1`, for which the concentration for half-maximal inhibition (IC50) against Alpha amylase [2] was 19 µM.

With `O=C(N/N=C/c1coc2cc(Br)ccc2c1=O)c1nc(-c2cccc(Br)c2)cs1`, in series [1], the CC50 at 12 h is more than 100 µM. On Alpha amylase [2], this molecule displayed an IC50 of 4.46 µM. For the same molecule, the Ki (in general, a measure of affinity in units of concentration, obtained from inhibition or displacement) at Alpha amylase [4] is 5.4 µM.
